Where two headings read alike, the source gives them in different places. Where a SMILES comes first, the peptide text is derived from it. Bridges are numbered along the chain shown (N, C = ends). [ ]: non-standard residue; d: D form. The star is where a group is joined. Decanoyl(3R-OH) = CCCCCCC[C@@H](O)CC(=O)*; dDab = NCC[C@@H](N)C(=O)O; Dab = NCC[C@H](N)C(=O)O
Tests used:
[1] = test system: C. neoformans H99 (cap59Δ); assay type: cell-based, Cryptococcus neoformans; details: triplicate; for MICs against various Cryptococcus strains: H99 (cap59Δ): Table 2, values consistent across replicates
Source text: The different susceptibility of C. neoformans and C. gattii to PMB compared to other pathogenic fungi such as C. albicans and A. fumigatus has been postulated to arise from differences in cell surface composition ([38]). One key difference is the presence of a negatively charged polysaccharide capsule in Cryptococcus spp. proposed to concentrate the cationic lipopeptides at the cell surface ([38]). To examine this potential interaction for the octapeptin series, a C. neoformans cap59Δ mutant strain deficient in the secretion of negatively charged glucuronoxylomannan (an α1–3-linked mannan containing β1,2 and β1,4 xylosyl substitutions, as well as β1,2-linked glucuronyl residues) ([41], [42]), was tested against octapeptin C4 in comparison to PMB.
(§1) Fungal strains were stored in 15% glycerol at −80°C until use. The fungal strains used were H99 (C. neoformans type strain) ([55]), cap59Δ (an acapsular H99 mutant) ([56]), ATCC 90113 (C. neoformans), MMRL 2651 (C. gattii), ATCC 90028 (Candida albicans), ATCC 90030 (Candida glabrata), ATCC 22019 (Candida parapsilosis), and ATCC MYA 3626 (Aspergillus fumigatus). Yeasts were cultured in liquid (1% yeast extract, 2% Bacto peptone, 2% glucose) or solid (additional 2% agar) yeast extract-peptone-dextrose (YPD) media at 30°C and maintained at 4°C for no longer than 2 weeks. A. fumigatus was prepared on potato dextrose medium at 30°C and maintained at 4°C for no longer than 2 weeks.
(§2) The MICs of the yeast strains for PMB, PME, and octapeptin C4 and its derivatives were determined in accordance with CLSI M27-A2 guidelines using YNB (Becton Dickinson, USA) medium supplemented with 10 mM ammonium sulfate and 2% glucose, a final inoculum concentration of 1.5 × 10^3 to 2.0 × 10^3 cells/ml, and incubation at 35°C for 72 h ([39]). […] The MICs for PMB, PME, and octapeptin C4 for A. fumigatus were determined in accordance with the CLSI M38-A2 guidelines ([40]) using synthetic RPMI 1640 medium (with glutamine, without bicarbonate and with phenol red; Life Technologies, USA). The final inoculum concentration was 0.4 × 10^4 to 5 × 10^4 cells/ml, with incubation at 35°C for 48 h. […] All assays were completed in triplicate. Fluconazole was used as a positive control where the MIC was determined at both 50% growth (in accordance with CLSI M27-A2 guidelines) and when there was a “no visible growth” reading.

C. gattii MMRL 2651 = test system: C. gattii MMRL 2651
Method: (§3) A broth microdilution assay was initially used to characterize the antifungal activity of the cyclic lipopeptides ([39], [40]). […] common pathogenic yeasts (C. albicans, C. glabrata, C. parapsilosis, C. neoformans, and C. gattii) and one pathogenic mold (A. fumigatus) were tested to determine the MIC for each compound (Table 1) using broth microdilution. […] The only structural difference between these molecules is the presence of a phenylalanine residue at position 6 in PMB; in PME a D-leucine is present at this location (Fig. 1).
as §1, §2

C. neoformans ATCC 90113 = details: for MICs against various Cryptococcus strains: ATCC 90113: ATCC 90113, 72 h
Method: as §3, §1, §2

C. neoformans H99 = details: for MICs against various Cryptococcus strains: H99: H99, 72 h; for MIC C. neoformans H99: Table 1, CLSI M27-A2, YNB medium, 35°C, no visible growth after 72 h, triplicate
Method: as §3, §1, §2

C. albicans = experiment: Broth microdilution MIC; assay type: cell-based, Candida albicans; details: ATCC 90028; CLSI M27-A2, YNB medium, 35°C, no visible growth after 48 h; triplicate
Method: as §3, §1
(§4) […] The final inoculum concentration was 0.4 × 10^4 to 5 × 10^4 cells/ml, with incubation at 35°C for 48 h. […] All assays were completed in triplicate. […]

A. fumigatus = experiment: Broth microdilution MIC (CLSI M38-A2); assay type: cell-based, Aspergillus fumigatus; details: ATCC MYA 3626; CLSI M38-A2, RPMI 1640, 35°C, no visible growth after 48 h; triplicate
Method: as §3
Fungal strains were stored in 15% glycerol at −80°C until use. […]
The MICs of the yeast strains for PMB, PME, and octapeptin C4 and its derivatives were determined in accordance with CLSI M27-A2 guidelines using YNB (Becton Dickinson, USA) medium supplemented with 10 mM ammonium sulfate and 2% glucose, a final inoculum concentration of 1.5 × 10^3 to 2.0 × 10^3 cells/ml, and incubation at 35°C for 72 h ([39]). […] The MICs for PMB, PME, and octapeptin C4 for A. fumigatus were determined in accordance with the CLSI M38-A2 guidelines ([40]) using synthetic RPMI 1640 medium (with glutamine, without bicarbonate and with phenol red; Life Technologies, USA). […]

[2] = test system: melanized and nonmelanized C. neoformans cells; experiment: In vitro time course assay of melanization effect; assay type: cell-based, Cryptococcus neoformans; details: melanin induced on L-DOPA agar vs suppressed on YPD agar; PMB at 12.5 μM, octapeptin C4 at 1.56 μM; 0-8 h; two replicates
Method: (A) Melanin suppressed C. neoformans. (B) Melanin induced C. neoformans. […] Samples from each flask were taken 0, 1, 2, 4, 6, and 8 h after inoculation, spread onto a YPD plate, and incubated at 30°C for 3 days, at which time the colonies were counted. The data represent the means of two replicates, and the error bars represent the SEM.
Melanization was induced by growth on L-DOPA agar medium at 30°C and suppressed by growth on YPD agar medium at 30°C. Cells were grown over 3 days and collected, washed twice in PBS, and then resuspended in PBS at a density of 1,500 to 2,000 cells/ml. Aliquots of the cells were treated with PMB sulfate, octapeptin C4, and the octapeptin C4 derivatives P1L, P1D, P4, P3, P4L, P4D, P5, P6, P7, and P8 at the determined MICs. At 0, 1, 2, 4, 6, and 8 h after inoculation, samples of the suspension were spread onto YPD agar and incubated at 30°C for 3 days, and the colonies were counted. The assay was repeated in duplicate, and paired sample t tests were performed in GraphPad Prism v7.0.

C. parapsilosis = experiment: Broth microdilution MIC; assay type: cell-based, Candida parapsilosis; details: ATCC 22019; CLSI M27-A2, YNB medium, 35°C, no visible growth after 48 h; triplicate
Method: as §3, §1, §4

[3] = test system: capsule-induced or -suppressed C. neoformans H99 cells; experiment: In vitro time course assay of capsule influence; assay type: cell-based, Cryptococcus neoformans; details: PMB at 12.5 μM
Method: (A) C. neoformans grown on capsule inducing RPMI 1640 agar medium (without L-glutamine and sodium bicarbonate) with incubation at 37°C in 5% CO2 for 3 days. Scale bar, 20 μm. (B) C. neoformans grown on capsule-suppressing media, YPD containing 1 M NaCl at 30°C in ambient air for 3 days. […] The data represent the means of two replicates, and the error bars represent the standard errors of the mean (SEM).
Capsule induction of strain H99 was achieved as described by Zhai et al. ([37]) with growth on RPMI 1640 (without L-glutamine and sodium bicarbonate) (Sigma, Australia) agar medium and incubation at 37°C in 5% CO2 and capsule suppression by growth on YPD containing 1 M NaCl at 30°C in ambient air. After 3 days, the cells from each culture were collected, washed twice with phosphate-buffered saline (PBS), and resuspended in PBS to avoid changes in the capsule at a density of 1,500 to 2,000 cells/ml. Cell suspensions were treated with test compounds at the determined MIC value. The compounds tested were PMB sulfate, octapeptin C4, and the octapeptin C4 alanine scan derivatives P1L, P1D, P4, P3, P4L, P4D, P5, P6, P7, and P8. At 0, 1, 2, 4, 6, and 8 h after inoculation, samples from each treatment were spread onto a YPD plate, followed by incubation at 30°C for 3 days, at which time the colonies were counted. The assay was repeated in duplicate, and paired sample t tests were performed using GraphPad Prism v7.0 (GraphPad Software, USA).

C. glabrata = experiment: Broth microdilution MIC; assay type: cell-based, Candida glabrata; details: ATCC 90030; CLSI M27-A2, YNB medium, 35°C, no visible growth after 48 h; triplicate
Method: as §3, §1, §4

common fungal pathogens = experiment: Broth microdilution MIC, panel of fungal pathogens; assay type: cell-based; details: highest concentration 100 μg/ml
Method: as §3
The MICs of the yeast strains for PMB, PME, and octapeptin C4 and its derivatives were determined in accordance with CLSI M27-A2 guidelines using YNB (Becton Dickinson, USA) medium supplemented with 10 mM ammonium sulfate and 2% glucose, a final inoculum concentration of 1.5 × 10^3 to 2.0 × 10^3 cells/ml, and incubation at 35°C for 72 h ([39]). […] The MICs for PMB, PME, and octapeptin C4 for A. fumigatus were determined in accordance with the CLSI M38-A2 guidelines ([40]) using synthetic RPMI 1640 medium (with glutamine, without bicarbonate and with phenol red; Life Technologies, USA). The final inoculum concentration was 0.4 × 10^4 to 5 × 10^4 cells/ml, with incubation at 35°C for 48 h. […] All assays were completed in triplicate. […]

Compound | MICs against various Cryptococcus strains: H99 (cap59Δ) [1] | MICs against various Cryptococcus strains: MMRL 2651 (C. gattii MMRL 2651; 72 h) | MICs against various Cryptococcus strains: ATCC 90113 (C. neoformans ATCC 90113) | MICs against various Cryptococcus strains: H99 (C. neoformans H99) | also measured
CCCCCCC[C@@H](O)CC(=O)N[C@H](CCN)C(=O)N[C@H]1CCNC(=O)[C@H](CC(C)C)NC(=O)[C@H](CCN)NC(=O)[C@H](CCN)NC(=O)[C@H](CC(C)C)NC(=O)[C@H](C)NC(=O)[C@H](CCN)NC1=O [Compound P4L] ({Decanoyl(3R-OH)}-[dDab][Dab][Dab]AL[Dab][Dab]L; lactam 2-C) | 100.0 µg/mL | 100 µg/mL | 25.0 µg/mL | 50.0 µg/mL | –
CCCCCCC[C@@H](O)CC(=O)N[C@H](CCN)C(=O)N[C@H]1CCNC(=O)[C@H](CC(C)C)NC(=O)[C@H](CCN)NC(=O)[C@H](CCN)NC(=O)[C@H](C)NC(=O)[C@@H](Cc2ccccc2)NC(=O)[C@H](CCN)NC1=O [Compound P5] ({Decanoyl(3R-OH)}-[dDab][Dab][Dab][dF]A[Dab][Dab]L; lactam 2-C) | 50.0 µg/mL | 25.0 µg/mL | 12.5 µg/mL | 12.5 µg/mL | –
CCCCCCC[C@@H](O)CC(=O)N[C@H](CCN)C(=O)N[C@H]1CCNC(=O)[C@H](CC(C)C)NC(=O)[C@H](CCN)NC(=O)[C@H](C)NC(=O)[C@H](CC(C)C)NC(=O)[C@@H](Cc2ccccc2)NC(=O)[C@H](CCN)NC1=O [Compound P6] ({Decanoyl(3R-OH)}-[dDab][Dab][Dab][dF]LA[Dab]L; lactam 2-C) | 12.5 µg/mL | 6.25 µg/mL | 6.25 µg/mL | 6.25 µg/mL | –
CCCCCCC[C@@H](O)CC(=O)N[C@H](CCN)C(=O)N[C@H]1CCNC(=O)[C@H](CC(C)C)NC(=O)[C@H](C)NC(=O)[C@H](CCN)NC(=O)[C@H](CC(C)C)NC(=O)[C@@H](Cc2ccccc2)NC(=O)[C@H](CCN)NC1=O [Compound P7] ({Decanoyl(3R-OH)}-[dDab][Dab][Dab][dF]L[Dab]AL; lactam 2-C) | 12.5 µg/mL | – | 6.25 µg/mL | 6.25 µg/mL | MICs against various Cryptococcus strains: MMRL 2651 (C. gattii MMRL 2651; Table 2, C. gattii, triplicate, values consistent across replicates): 12.5 µg/mL
CCCCCCC[C@@H](O)CC(=O)N[C@H](CCN)C(=O)N[C@H]1CCNC(=O)[C@H](C)NC(=O)[C@H](CCN)NC(=O)[C@H](CCN)NC(=O)[C@H](CC(C)C)NC(=O)[C@@H](Cc2ccccc2)NC(=O)[C@H](CCN)NC1=O [Compound P8] ({Decanoyl(3R-OH)}-[dDab][Dab][Dab][dF]L[Dab][Dab]A; lactam 2-C) | 100 µg/mL | 50.0 µg/mL | 6.25 µg/mL | 50.0 µg/mL | –
polymyxin B [PMB] | – | – | – | – | MIC C. albicans (C. albicans): >100 µg/mL; MIC C. neoformans H99 (cap59Δ) ([1]; Table 1, CLSI M27-A2, YNB medium, 35°C, no visible growth after 72 h): 50 µg/mL; MIC A. fumigatus (A. fumigatus): >100 µg/mL; effect of melanization on fungicidal activity [2]: no difference in activity; MIC C. parapsilosis (C. parapsilosis): >100 µg/mL; MIC C. gattii (C. gattii MMRL 2651; Table 1, MMRL 2651, CLSI M27-A2, YNB medium, 35°C, 72 h, triplicate): 25.0 µg/mL; MIC C. neoformans ATCC 90113 (C. neoformans ATCC 90113; Table 1, CLSI M27-A2, YNB medium, 35°C, no visible growth after 72 h, triplicate): 12.5 µg/mL; MIC C. neoformans H99 (C. neoformans H99): 12.5 µg/mL; time to 50% reduction in viability, fungal cells with large capsule ([3]; H99, capsule induced on RPMI 1640 agar 37°C 5% CO2, cells in PBS, colony counts, two replicates): around 1 h; time to 50% reduction in viability, capsule suppressed fungal cells ([3]; H99, capsule suppressed on YPD with 1 M NaCl 30°C, relative to large capsule cells): five times longer; effect of capsule formation on fungicidal activity ([3]; H99, octapeptin C4 at 1.56 μM, 0-8 h, two replicates): enhanced the fungicidal effect; MIC C. glabrata (C. glabrata): >100 µg/mL
polymyxin E [PME] | – | – | – | – | MIC C. albicans (C. albicans): >100 µg/mL; antifungal activity against any of the species analyzed (common fungal pathogens): did not show significant antifungal activity; MIC A. fumigatus (A. fumigatus): >100 µg/mL; MIC C. parapsilosis (C. parapsilosis): >100 µg/mL; MIC C. neoformans H99 (C. neoformans H99): 100 µg/mL; MIC C. glabrata (C. glabrata): >100 µg/mL

Reference: publication PMC5786788, “Antimicrobial Octapeptin C4 Analogues Active against Cryptococcus Species” (Antimicrobial Agents and Chemotherapy, 2018)
